Test: Photoreactivity assessment (photo DSC enthalpy of polymerization)
Format: physicochemical
Settings: for experimental ΔH as % of the calculated ΔH: 3% photoacid
From the text: In this example, the photoreactivity of various combinations of SIL-MIX alone or SIL-MIX with 3,9-diethyl-3,9-bis(allyloxymethyl)-1,5,7,11-tetraoxaspiro[5.5]undecane (DEBAOM-1,5,7,11-TOSU) 1; 3,9-bis(3-trimethylsilylpropyl)-1,5,7,11-tetraoxaspiro[5.5]undecane (BTMSP-1,5,7,11-TOSU) 2; 3,9-bis(allyloxymethyl)-2,4,8,10-tetraoxaspiro[5.5]undecane (BAOM-2,4,8,10-TOSU) 3; 3,9-bis(2-trimethylsilylethyl)-[…] (BTMSE-2,4,8,10-TOSU) 4; 3,3-diethyl-11,12-epoxy-1,5,7,16-tetraoxadispiro[5.2.5.2]hexadecane (DECHE-1,5,7,11-TOSU) 5; and 3,9-diethyl-3,9-bis(3-trimethylsilylpropyloxymethyl)-1,5,7,11-tetraoxaspiro[5.5]-undecane (DEBTMSPOM-1,5,7,11-TOSU) 6 was investigated. The photoreactivity assessments (n=1) were made using an EXFO Novacure light curing unit interfaced with a Perkin-Elmer Diamond DSC. The experimental conditions were as follows: 25° C.; N2 atmosphere; 400-500 nm light; 3 mm quartz light guides; output: 500 mW/cm measured 15 mm from sample surface. The sample weights were 15-18 mg. Standard A1 pans were used. An empty pan was placed in the reference position. Irradiation time was for 10 minutes following a 1 minute equilibration. After the initial run, the sample was re-irradiated for an additional 10 minutes. This second curve was subtracted from the initial exotherm curve to zero out artifacts due to beginning and ending of irradiation, and to compensate for the heat capacity differences between the sample pan and empty reference pan. Integrations were from time t=1.1 (lamp shutter opened) min to 11.1 min (lamp shutter closed).
In this example, reaction mixtures containing 0 or 20 mol % of TOSU monomers 1, 2, 3, 4, and 5 in SIL-MIX were formulated with 4.1 wt % photoinitiator system (3 wt % PI; 1 wt % CQ; 0.1 wt % ED). Formulated mixtures were heated for 5 minutes on an oil bath at about 60° C. and stirred magnetically to aid dissolution of the photoinitiator system and inventive monomer. Formulations were prepared and stored away from ambient light. Mixtures were tested for photoreactivity the same day as prepared.
The effect of doubling the photoinitiator (PI) content from 3 wt % to 6 wt % was also determined for selected mixtures. As in Example 7(a) above, reaction mixtures (about 2 g) were formulated with 4.1 wt % photoinitiator system (3 wt % PI; 1 wt % CQ; 0.1 wt % ED) except where noted. Formulated mixtures were heated for 5 minutes on an oil bath @ 60° C. and stirred magnetically to dissolve the photoinitiator system and 6 (DEBTMSPOM-1,5,7,11-TOSU) when included. Formulations were prepared and stored away from ambient light and tested the same day as prepared.

## CCC1(COCCC[Si](C)(C)C)COC2(OC1)OCC(CC)(COCCC[Si](C)(C)C)CO2 (stereo not shown) [Monomer 6, 3,9-diethyl-3,9-bis(3-trimethylsilylpropyloxymethyl)-1,5,7,11-tetraoxaspiro[5.5]undecane]
3 wt % PI, 10 mol % in SIL-MIX
  ΔHexp: -124 J/g
3 wt % PI, 25 mol % in SIL-MIX
  ΔHexp: -86 J/g
3 wt % PI, calculated for inert diluent instead of TOSU at 10 mol %
  ΔHcalc: -174 J/g
3 wt % PI, calculated for inert diluent instead of TOSU at 25 mol %
  ΔHcalc: -145 J/g
6 wt % PI, 10 mol % in SIL-MIX
  ΔHexp: -127 J/g
6 wt % PI, 25 mol % in SIL-MIX
  ΔHexp: -87 J/g
6 wt % PI, calculated for inert diluent instead of TOSU at 10 mol %
  ΔHcalc: -166 J/g
6 wt % PI, calculated for inert diluent instead of TOSU at 25 mol %
  ΔHcalc: -139 J/g
10% TOSU mix in SIL-MIX
  experimental ΔH as % of the calculated ΔH: 71%
25% TOSU mix in SIL-MIX
  experimental ΔH as % of the calculated ΔH: 59%
